# Reference: patent US20260000692A1, “Substituted N-(Pyridin-2-yl)Acetamide Derivatives as CDK12/13 Inhibitors” (Aurigene Oncology Limited, priority 2022, published 2026)
# Target: CDK12 (Homo sapiens, UniProt Q9NYV4)
# Assay: Biochemical assay for CDK12 (LANCE TR-FRET, IC50 determination)
# Details: for IC50: CDK12, IC50 class, read-out: IC50 μM (in range); for inhibition at 10 µM: compound at 10 μM, read-out: CDK12 % Inhibition @ 10 μM
# In short: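 30 nM CDK12 phosphorylated 100 nM ULight-4E-BP1 (Thr37/Thr46) peptide at 100 µM ATP, as printed, in HEPES pH 7.5 buffer with MgCl2 and DTT. Compound and enzyme were preincubated 60 min, then reacted 60 min at room temperature before stopping with EDTA and Eu anti-phospho antibody. TR-FRET 665/615 ratio gave sigmoidal IC50 fits.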
# CDK12, sequence (Q9NYV4 whole entry): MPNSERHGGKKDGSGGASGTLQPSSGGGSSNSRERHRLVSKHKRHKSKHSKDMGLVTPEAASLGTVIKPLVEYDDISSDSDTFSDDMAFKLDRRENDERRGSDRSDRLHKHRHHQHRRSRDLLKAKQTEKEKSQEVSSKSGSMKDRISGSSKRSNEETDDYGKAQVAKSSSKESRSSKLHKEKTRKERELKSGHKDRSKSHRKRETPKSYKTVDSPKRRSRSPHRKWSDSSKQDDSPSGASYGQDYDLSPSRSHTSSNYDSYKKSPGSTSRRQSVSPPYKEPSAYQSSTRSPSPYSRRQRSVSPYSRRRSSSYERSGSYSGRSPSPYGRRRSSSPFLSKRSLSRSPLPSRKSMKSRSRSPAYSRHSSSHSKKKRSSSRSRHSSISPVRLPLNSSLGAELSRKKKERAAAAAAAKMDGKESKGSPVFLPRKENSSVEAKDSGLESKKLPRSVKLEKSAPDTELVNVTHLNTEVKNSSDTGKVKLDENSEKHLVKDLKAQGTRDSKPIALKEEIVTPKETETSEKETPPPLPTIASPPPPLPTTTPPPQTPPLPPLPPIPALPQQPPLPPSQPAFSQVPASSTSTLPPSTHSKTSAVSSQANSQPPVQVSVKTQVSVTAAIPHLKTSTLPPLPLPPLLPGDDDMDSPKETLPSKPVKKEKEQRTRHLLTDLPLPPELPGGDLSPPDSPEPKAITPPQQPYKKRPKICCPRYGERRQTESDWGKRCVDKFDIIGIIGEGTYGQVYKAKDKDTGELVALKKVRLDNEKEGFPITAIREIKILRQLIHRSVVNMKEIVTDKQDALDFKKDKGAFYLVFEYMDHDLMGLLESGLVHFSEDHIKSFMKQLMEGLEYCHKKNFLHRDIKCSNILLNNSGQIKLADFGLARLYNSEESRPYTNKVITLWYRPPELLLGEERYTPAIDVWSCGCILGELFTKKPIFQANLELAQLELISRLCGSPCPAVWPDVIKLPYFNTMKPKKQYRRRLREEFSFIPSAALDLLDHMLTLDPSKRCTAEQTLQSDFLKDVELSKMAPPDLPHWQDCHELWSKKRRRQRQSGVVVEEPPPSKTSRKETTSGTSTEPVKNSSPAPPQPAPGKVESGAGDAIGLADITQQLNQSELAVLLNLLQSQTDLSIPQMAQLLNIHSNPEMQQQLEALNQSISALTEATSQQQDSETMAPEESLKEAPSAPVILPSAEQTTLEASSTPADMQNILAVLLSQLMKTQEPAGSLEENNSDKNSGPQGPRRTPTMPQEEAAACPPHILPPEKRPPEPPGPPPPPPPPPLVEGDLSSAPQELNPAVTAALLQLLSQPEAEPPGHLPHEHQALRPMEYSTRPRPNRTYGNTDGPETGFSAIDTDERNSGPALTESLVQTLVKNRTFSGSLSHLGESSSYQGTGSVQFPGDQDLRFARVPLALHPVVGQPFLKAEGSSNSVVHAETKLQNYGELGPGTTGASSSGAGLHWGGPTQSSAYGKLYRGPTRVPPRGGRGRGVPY
# CDK12, sequence (O75909 whole entry partner): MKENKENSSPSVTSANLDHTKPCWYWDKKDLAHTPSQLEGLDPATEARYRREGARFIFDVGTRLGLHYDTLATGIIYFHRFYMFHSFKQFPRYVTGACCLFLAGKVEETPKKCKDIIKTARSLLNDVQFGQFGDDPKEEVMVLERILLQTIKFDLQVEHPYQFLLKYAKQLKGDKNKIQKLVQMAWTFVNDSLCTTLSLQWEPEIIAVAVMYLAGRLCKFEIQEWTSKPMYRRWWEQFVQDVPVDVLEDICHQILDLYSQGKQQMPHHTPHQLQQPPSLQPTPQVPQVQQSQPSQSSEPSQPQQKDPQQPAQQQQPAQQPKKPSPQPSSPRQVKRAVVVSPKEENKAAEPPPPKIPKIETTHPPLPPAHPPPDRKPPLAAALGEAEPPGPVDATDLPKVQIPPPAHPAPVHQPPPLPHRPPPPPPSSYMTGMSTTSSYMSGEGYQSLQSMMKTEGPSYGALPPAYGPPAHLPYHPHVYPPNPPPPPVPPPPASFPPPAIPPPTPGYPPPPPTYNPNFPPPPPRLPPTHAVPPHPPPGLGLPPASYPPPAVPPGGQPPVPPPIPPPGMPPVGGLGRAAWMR
compound,measurement,value
"CN1CCC(Oc2cc(NC(=O)Cc3ccc(C4=CCCN(C#N)C4)nc3)ncc2Cl)CC1 [Compound 37, N-(5-chloro-4-((1-methylpiperidin-4-yl)oxy)pyridin-2-yl)-2-(1′-cyano-1′,2′,5′,6′-tetrahydro-[2,3′-bipyridin]-5-yl)acetamide]",IC50,< 0.01 µM
same,inhibition at 10 µM,94%
"CN1CC[C@@H](Oc2cc(NC(=O)Cc3ccc(C4=CCCN(C#N)C4)nc3)ncc2Cl)C1 [Compound 38, (R)-N-(5-chloro-4-((1-methylpyrrolidin-3-yl)oxy)pyridin-2-yl)-2-(1′-cyano-1′,2′,5′,6′-tetrahydro-[2,3′-bipyridin]-5-yl)acetamide]",IC50,< 0.01 µM
same,inhibition at 10 µM,88%
"CN1CC[C@H](Oc2cc(NC(=O)Cc3ccc(C4=CCCN(C#N)C4)nc3)ncc2Cl)C1 [Compound 39, (S)-N-(5-chloro-4-((1-methylpyrrolidin-3-yl)oxy)pyridin-2-yl)-2-(1′-cyano-1′,2′,5′,6′-tetrahydro-[2,3′-bipyridin]-5-yl)acetamide]",IC50,0.01 to 0.1 µM
same,inhibition at 10 µM,98%
"N#CN1CCC=C(c2ccc(CC(=O)Nc3cc(O[C@@H]4CCOC4)c(Cl)cn3)cn2)C1 [Compound 40, (R)-N-(5-chloro-4-((tetrahydrofuran-3-yl)oxy)pyridin-2-yl)-2-(1′-cyano-1′,2′,5′,6′-tetrahydro-[2,3′-bipyridin]-5-yl)acetamide]",IC50,< 0.01 µM
same,inhibition at 10 µM,91%
"N#CN1CCC=C(c2ccc(CC(=O)Nc3cc(O[C@H]4CCOC4)c(Cl)cn3)cn2)C1 [Compound 41, (S)-N-(5-chloro-4-((tetrahydrofuran-3-yl)oxy)pyridin-2-yl)-2-(1′-cyano-1′,2′,5′,6′-tetrahydro-[2,3′-bipyridin]-5-yl)acetamide]",IC50,< 0.01 µM
same,inhibition at 10 µM,96%
"CC(CN(C)C)Oc1cc(NC(=O)Cc2ccc(C3=CCCN(C#N)C3)nc2)ncc1Cl (stereo not drawn) [Compound 42, N-(5-chloro-4-((1-(dimethylamino)propan-2-yl)oxy)pyridin-2-yl)-2-(1′-cyano-1′,2′,5′,6′-tetrahydro-[2,3′-bipyridin]-5-yl)acetamide]",IC50,> 0.1 µM
same,inhibition at 10 µM,116%
"N#CN1CCC=C(c2ccc(CC(=O)Nc3cc(OC4CCCOC4)c(Cl)cn3)cn2)C1 (stereo not drawn) [Compound 43, N-(5-chloro-4-((tetrahydro-2H-pyran-3-yl)oxy)pyridin-2-yl)-2-(1′-cyano-1′,2′,5′,6′-tetrahydro-[2,3′-bipyridin]-5-yl)acetamide]",IC50,< 0.01 µM
same,inhibition at 10 µM,87%
"CN1CCC[C@@H](Oc2cc(NC(=O)Cc3ccc(C4=CCCN(C#N)C4)nc3)ncc2Cl)C1 [Compound 46, (R)-N-(5-chloro-4-((1-methylpiperidin-3-yl)oxy)pyridin-2-yl)-2-(1′-cyano-1′,2′,5′,6′-tetrahydro-[2,3′-bipyridin]-5-yl)acetamide]",IC50,< 0.01 µM
same,inhibition at 10 µM,88%
"CN1CCC[C@H](Oc2cc(NC(=O)Cc3ccc(C4=CCCN(C#N)C4)nc3)ncc2Cl)C1 [Compound 47, (S)-N-(5-chloro-4-((1-methylpiperidin-3-yl)oxy)pyridin-2-yl)-2-(1′-cyano-1′,2′,5′,6′-tetrahydro-[2,3′-bipyridin]-5-yl)acetamide]",IC50,0.01 to 0.1 µM
same,inhibition at 10 µM,85%
"COc1cc(NC(=O)C(C)c2ccc(C3=CCCN(C#N)C3)nc2)ncc1Cl (stereo not drawn) [Compound 48, N-(5-chloro-4-methoxypyridin-2-yl)-2-(1′-cyano-1′,2′,5′,6′-tetrahydro-[2,3′-bipyridin]-5-yl)propanamide]",IC50,< 0.01 µM
same,inhibition at 10 µM,90%
"COc1cc(NC(=O)C(C)c2ccc(C3=CCN(C#N)CC3)nc2)ncc1Cl (stereo not drawn) [Compound 51, N-(5-chloro-4-methoxypyridin-2-yl)-2-(1′-cyano-1′,2′,3′,6′-tetrahydro-[2,4′-bipyridin]-5-yl)propanamide]",IC50,< 0.01 µM
same,inhibition at 10 µM,102%
"CN1CCCC1COc1cc(NC(=O)Cc2ccc(C3=CCN(C#N)CC3)nc2)ncc1Cl (stereo not drawn) [Compound 54, N-(5-chloro-4-((1-methylpyrrolidin-2-yl)methoxy)pyridin-2-yl)-2-(1′-cyano-1′,2′,3′,6′-tetrahydro-[2,4′-bipyridin]-5-yl)acetamide]",IC50,> 0.1 µM
same,inhibition at 10 µM,77%
"CN1CCCC1COc1cc(NC(=O)Cc2ccc(C3=CCCN(C#N)C3)nc2)ncc1Cl (stereo not drawn) [Compound 55, N-(5-chloro-4-((1-methylpyrrolidin-2-yl)methoxy)pyridin-2-yl)-2-(1′-cyano-1′,2′,5′,6′-tetrahydro-[2,3′-bipyridin]-5-yl)acetamide]",IC50,> 0.1 µM
same,inhibition at 10 µM,86%
"CNC(=O)C(C)Oc1cc(NC(=O)Cc2ccc(C3=CCCN(C#N)C3)nc2)ncc1Cl (stereo not drawn) [Compound 56, 2-((5-chloro-2-(2-(1′-cyano-1′,2′,5′,6′-tetrahydro-[2,3′-bipyridin]-5-yl)acetamido)pyridin-4-yl)oxy)-N-methylpropanamide]",IC50,< 0.01 µM
same,inhibition at 10 µM,100%
"COc1cc(NC(=O)Cc2ccc(C3CCN(C#N)CC3)nc2)ncc1Cl [Compound 59, N-(5-chloro-4-methoxypyridin-2-yl)-2-(6-(1-cyanopiperidin-4-yl)pyridin-3-yl)acetamide]",IC50,< 0.01 µM
same,inhibition at 10 µM,89%
"COc1cc(NC(=O)Cc2ccc(C3CCN(C#N)CC3C)nc2)ncc1Cl (stereo not drawn) [Compound 60, N-(5-chloro-4-methoxypyridin-2-yl)-2-(6-(1-cyano-3-methylpiperidin-4-yl)pyridin-3-yl)acetamide]",IC50,0.01 to 0.1 µM
same,inhibition at 10 µM,87%
"N#CN1CCC=C(c2ccc(CC(=O)Nc3cc(OC4CCOCC4)c(Cl)cn3)cn2)C1 [Compound 61, N-(5-chloro-4-((tetrahydro-2H-pyran-4-yl)oxy)pyridin-2-yl)-2-(1′-cyano-1′,2′,5′,6′-tetrahydro-[2,3′-bipyridin]-5-yl)acetamide]",IC50,< 0.01 µM
same,inhibition at 10 µM,89%
"CN1C2CCC1CC(Oc1cc(NC(=O)Cc3ccc(C4=CCCN(C#N)C4)nc3)ncc1Cl)C2 (stereo not drawn) [Compound 62, N-(5-chloro-4-((8-methyl-8-azabicyclo[3.2.1]octan-3-yl)oxy)pyridin-2-yl)-2-(1′-cyano-1′,2′,5′,6′-tetrahydro-[2,3′-bipyridin]-5-yl)acetamide]",IC50,< 0.01 µM
same,inhibition at 10 µM,96%
"CC1CC(Oc2cc(NC(=O)Cc3ccc(C4=CCCN(C#N)C4)nc3)ncc2Cl)CCN1C (stereo not drawn) [Compound 63, N-(5-chloro-4-((1,2-dimethylpiperidin-4-yl)oxy)pyridin-2-yl)-2-(1′-cyano-1′,2′,5′,6′-tetrahydro-[2,3′-bipyridin]-5-yl)acetamide]",IC50,< 0.01 µM
same,inhibition at 10 µM,92%
"COc1cc(NC(=O)Cc2ccc(C3=CCN(C#N)C(C)C3)nc2)ncc1Cl (stereo not drawn) [Compound 65, N-(5-chloro-4-methoxypyridin-2-yl)-2-(1′-cyano-2′-methyl-1′,2′,3′,6′-tetrahydro-[2,4′-bipyridin]-5-yl)acetamide]",IC50,< 0.01 µM
same,inhibition at 10 µM,87%
"CN1CC2(CC(Oc3cc(NC(=O)Cc4ccc(C5=CCCN(C#N)C5)nc4)ncc3Cl)C2)C1 [Compound 69, N-(5-chloro-4-((2-methyl-2-azaspiro[3.3]heptan-6-yl)oxy)pyridin-2-yl)-2-(1′-cyano-1′,2′,5′,6′-tetrahydro-[2,3′-bipyridin]-5-yl)acetamide]",IC50,< 0.01 µM
same,inhibition at 10 µM,93%
